Measurements as given in patent US9718819B2 (Merck Sharp & Dohme Corp., priority 2012, dated 2017).
Like-named read-outs stand apart in the source and are kept apart here.

Target: HIV-1 RT wild-type enzyme (Human immunodeficiency virus type 1 group M subtype B (isolate HXB2) (HIV-1), UniProt P04585)
Assay: HIV-1 reverse transcriptase inhibitory activity (RT polymerase assay)
Assay type: biochemical
How it was run: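 Enzyme and compound were preincubated 30 min at room temperature, then RNA/DNA hybrid (16.6 nM final; HCV-derived RNA, biotinylated primer) plus 2 μM dNTPs and 66.6 nM Ru-dUTP added, 90 min at 37 °C. Avidin capture and ECL counting; percent inhibition relative to DMSO (0%) and 1 μM efavirenz (100%), four-parameter IC50 fit.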

[1] = HIV-1 RT wild-type enzyme 83 pM, RNA-dependent DNA polymerase activity, read-out: IC50

Compound	IC50 [1]	IC50
N#Cc1cc(Cl)cc(Oc2c(C(F)(F)F)ncn(Cc3cc(-c4ccc(C(F)(F)F)cc4)n[nH]c3=O)c2=O)c1 [Example 119, 3-chloro-5-((6-oxo-1-((3-oxo-6-(4-(trifluoromethyl)phenyl)-2,3-dihydropyridazin-4-yl)methyl)-4-(trifluoromethyl)-1,6-dihydropyrimidin-5-yl)oxy)benzonitrile]	12 nM	
N#Cc1cc(Cl)cc(Oc2c(C(F)(F)F)ncn(Cc3cnc(-n4cccn4)[nH]c3=O)c2=O)c1 [Example 142, 3-Chloro-5-[6-oxo-1-(6-oxo-2-pyrazol-1-yl-1,6-dihydro-pyrimidin-5-ylmethyl)-4-trifluoromethyl-1,6-dihydro-pyrimidin-5-yloxy]-benzonitrile]	35 nM	
CC(F)(F)c1ncn(Cc2cc(C(F)F)n[nH]c2=O)c(=O)c1Oc1cc(Cl)cc(C#N)c1 [Example 175, 3-chloro-5-((4-(1,1-difluoroethyl)-1-((6-(difluoromethyl)-3-oxo-2,3-dihydropyridazin-4-yl)methyl)-6-oxo-1,6-dihydropyrimidin-5-yl)oxy)benzonitrile]	3 nM	
N#Cc1cc(Cl)cc(Oc2c(C(F)F)ncn(Cc3cc(C(F)F)n[nH]c3=O)c2=O)c1 [Example 173, 3-chloro-5-((4-(difluoromethyl)-1-((6-(difluoromethyl)-3-oxo-2,3-dihydropyridazin-4-yl)methyl)-6-oxo-1,6-dihydropyrimidin-5-yl)oxy)benzonitrile]	6 nM	
Cn1cc(-c2cc(Cn3cnc(C(F)(F)F)c(Oc4cc(Cl)cc(C#N)c4)c3=O)c(=O)[nH]n2)cn1 [Example 111, 3-chloro-5-((1-((6-(1-methyl-1H-pyrazol-4-yl)-3-oxo-2,3-dihydropyridazin-4-yl)methyl)-6-oxo-4-(trifluoromethyl)-1,6-dihydropyrimidin-5-yl)oxy)benzonitrile]	10 nM	
N#Cc1cc(Cl)cc(Oc2c(C(F)(F)F)ncn(Cc3cc(-c4ccc(C#N)c(F)c4)n[nH]c3=O)c2=O)c1 [Example 122, 4-(5-((5-(3-chloro-5-cyanophenoxy)-6-oxo-4-(trifluoromethyl)pyrimidin-1(6H)-yl)methyl)-6-oxo-1,6-dihydropyridazin-3-yl)-2-fluorobenzonitrile]	6 nM	
COc1ccc(-c2cc(Cn3cnc(C(F)(F)F)c(Oc4cc(Cl)cc(C#N)c4)c3=O)n[nH]c2=O)cn1 [Example 74]	17 nM	
Cn1nccc1-c1cc(Cn2cnc(C(F)(F)F)c(Oc3cc(Cl)cc(C#N)c3)c2=O)c(=O)[nH]n1 [Example 114, 3-chloro-5-((1-((6-(1-methyl-1H-pyrazol-5-yl)-3-oxo-2,3-dihydropyridazin-4-yl)methyl)-6-oxo-4-(trifluoromethyl)-1,6-dihydropyrimidin-5-yl)oxy)benzonitrile]	7 nM	
N#Cc1cc(Cl)cc(Oc2c(C(F)(F)F)ncn(Cc3cnc(C(F)F)[nH]c3=O)c2=O)c1 [Example 157, 3-chloro-5-((1-((2-(difluoromethyl)-6-oxo-1,6-dihydropyrimidin-5-yl)methyl)-6-oxo-4-(trifluoromethyl)-1,6-dihydropyrimidin-5-yl)oxy)benzonitrile]	32 nM	
N#Cc1cc(Cl)cc(Oc2c(C(F)(F)F)ncn(Cc3cc(-c4ccc(Cl)c(F)c4)c(=O)[nH]n3)c2=O)c1 [Example 46, 3-chloro-5-((1-((5-(4-chloro-3-fluorophenyl)-6-oxo-1,6-dihydropyridazin-3-yl)methyl)-6-oxo-4-(trifluoromethyl)-1,6-dihydropyrimidin-5-yl)oxy)benzonitrile]	5 nM	
CC(F)(F)c1ncn(Cc2cc(-c3ccc(F)cc3)c(=O)[nH]n2)c(=O)c1Oc1cccc(C#N)c1F [Example 171, 3-((4-(1,1-difluoroethyl)-1-((5-(4-fluorophenyl)-6-oxo-1,6-dihydropyridazin-3-yl)methyl)-6-oxo-1,6-dihydropyrimidin-5-yl)oxy)-2-fluorobenzonitrile]	3 nM	
CSc1ncc(Cn2cnc(C(F)(F)F)c(Oc3cc(Cl)cc(C#N)c3)c2=O)c(=O)[nH]1 [Example 132, 3-chloro-5-((1-((2-(methylthio)-6-oxo-1,6-dihydropyrimidin-5-yl)methyl)-6-oxo-4-(trifluoromethyl)-1,6-dihydropyrimidin-5-yl)oxy)benzonitrile]	12 nM	
N#Cc1cc(Cl)cc(Oc2c(C(F)(F)F)ncn(Cc3cc(CO)c(=O)[nH]n3)c2=O)c1 [Example 12, 3-chloro-5-((1-((5-(hydroxymethyl)-6-oxo-1,6-dihydropyridazin-3-yl)methyl)-6-oxo-4-(trifluoromethyl)-1,6-dihydropyrimidin-5-yl)oxy)benzonitrile]		32 nM
N#Cc1cc(Cl)cc(Oc2c(C(F)(F)F)ncn(Cc3cc(OC(F)F)c(=O)[nH]n3)c2=O)c1 [Example 109, 3-chloro-5-((1-((5-(difluoromethoxy)-6-oxo-1,6-dihydropyridazin-3-yl)methyl)-6-oxo-4-(trifluoromethyl)-1,6-dihydropyrimidin-5-yl)oxy)benzonitrile]	7 nM	
N#Cc1cccc(Oc2c(C(F)(F)F)ncn(Cc3ccc(=O)[nH]n3)c2=O)c1F [Example 161, 2-fluoro-3-(6-oxo-1-((6-oxo-1,6-dihydropyridazin-3-yl)methyl)-4-(trifluoromethyl)-1,6-dihydropyrimidin-5-yloxy)benzonitrile]	24 nM	
Cc1ncn(Cc2ccc(=O)[nH]n2)c(=O)c1Oc1cc(Cl)cc(C#N)c1 [Example 13, 3-chloro-5-((4-methyl-6-oxo-1-((6-oxo-1,6-dihydropyridazin-3-yl)methyl)-1,6-dihydropyrimidin-5-yl)oxy)benzonitrile]	29 nM	
N#Cc1cc(Cl)cc(Oc2c(C(F)(F)F)ncn(Cc3ccn[nH]c3=O)c2=O)c1 [Example 5, 3-chloro-5-((6-oxo-1-((3-oxo-2,3-dihydropyridazin-4-yl)methyl)-4-(trifluoromethyl)-1,6-dihydropyrimidin-5-yl)oxy)benzonitrile]	6 nM	
N#Cc1cc(Oc2c(C(F)(F)F)ncn(Cc3cc(-c4ccc(F)cc4)c(=O)[nH]n3)c2=O)cc(OC(F)F)c1 [Example 167, 3-(difluoromethoxy)-5-((1-((5-(4-fluorophenyl)-6-oxo-1,6-dihydropyridazin-3-yl)methyl)-6-oxo-4-(trifluoromethyl)-1,6-dihydropyrimidin-5-yl)oxy)benzonitrile]	6 nM	
N#Cc1cc(Cl)cc(Oc2c(C(F)(F)F)ncn(Cc3cc(-c4ccc(F)cn4)c(=O)[nH]n3)c2=O)c1 [Example 98, 3-chloro-5-((1-((5-(5-fluoropyridin-2-yl)-6-oxo-1,6-dihydropyridazin-3-yl)methyl)-6-oxo-4-(trifluoromethyl)-1,6-dihydropyrimidin-5-yl)oxy)benzonitrile]	9 nM	
COc1cc(F)cc(-c2cc(Cn3cnc(C(F)(F)F)c(Oc4cc(Cl)cc(C#N)c4)c3=O)n[nH]c2=O)c1 [Example 61, 3-chloro-5-((1-((5-(3-fluoro-5-methoxyphenyl)-6-oxo-1,6-dihydropyridazin-3-yl)methyl)-6-oxo-4-(trifluoromethyl)-1,6-dihydropyrimidin-5-yl)oxy)benzonitrile]	11 nM	
N#Cc1cc(Cl)cc(Oc2c(C(F)(F)F)ncn(Cc3cc(-c4cccnc4)c(=O)[nH]n3)c2=O)c1 [Example 73, 3-chloro-5-((6-oxo-1-((6-oxo-5-(pyridin-3-yl)-1,6-dihydropyridazin-3-yl)methyl)-4-(trifluoromethyl)-1,6-dihydropyrimidin-5-yl)oxy)benzonitrile]	11 nM	
CC(C)(O)c1cc(Cn2cnc(C(F)(F)F)c(Oc3cc(Cl)cc(C#N)c3)c2=O)n[nH]c1=O [Example 11, 3-chloro-5-((1-((5-(2-hydroxypropan-2-yl)-6-oxo-1,6-dihydropyridazin-3-yl)methyl)-6-oxo-4-(trifluoromethyl)-1,6-dihydropyrimidin-5-yl)oxy)benzonitrile]	124 nM	
N#Cc1cc(Cl)cc(Oc2c(C(F)(F)F)ncn(Cc3cc(CF)c(=O)[nH]n3)c2=O)c1 [Example 16, 3-chloro-5-((1-((5-(fluoromethyl)-6-oxo-1,6-dihydropyridazin-3-yl)methyl)-6-oxo-4-(trifluoromethyl)-1,6-dihydropyrimidin-5-yl)oxy)benzonitrile]	12 nM	
N#Cc1cc(Cl)cc(Oc2c(C(F)(F)F)ncn(Cc3cnc(-c4ccnc5[nH]ccc45)[nH]c3=O)c2=O)c1 [Example 158, 3-chloro-5-((6-oxo-1-((6-oxo-2-(1H-pyrrolo[2,3-b]pyridin-4-yl)-1,6-dihydropyrimidin-5-yl)methyl)-4-(trifluoromethyl)-1,6-dihydropyrimidin-5-yl)oxy)benzonitrile]	11 nM	
COc1ccc(F)cc1-c1cc(Cn2cnc(C(F)(F)F)c(Oc3cc(Cl)cc(C#N)c3)c2=O)n[nH]c1=O [Example 59, 3-chloro-5-((1-((5-(5-fluoro-2-methoxyphenyl)-6-oxo-1,6-dihydropyridazin-3-yl)methyl)-6-oxo-4-(trifluoromethyl)-1,6-dihydropyrimidin-5-yl)oxy)benzonitrile]	125 nM	
N#Cc1cc(Cl)cc(Oc2c(C(F)(F)F)ncn(Cc3cc(-c4ccc(OC(F)(F)F)cc4)n[nH]c3=O)c2=O)c1 [Example 116, 3-chloro-5-((6-oxo-1-((3-oxo-6-(4-(trifluoromethoxy)phenyl)-2,3-dihydropyridazin-4-yl)methyl)-4-(trifluoromethyl)-1,6-dihydropyrimidin-5-yl)oxy)benzonitrile]	21 nM	
Cn1nc(Cn2cnc(C(F)(F)F)c(Oc3cc(Cl)cc(C#N)c3)c2=O)cc(Br)c1=O [Example 23]	38 nM	
N#Cc1cc(Cl)cc(Oc2c(C(F)(F)F)ccn(Cc3cc(C(F)F)n[nH]c3=O)c2=O)c1 [Example 172, 3-chloro-5-((1-((6-(difluoromethyl)-3-oxo-2,3-dihydropyridazin-4-yl)methyl)-2-oxo-4-(trifluoromethyl)-1,2-dihydropyridin-3-yl)oxy)benzonitrile]	5 nM	
